The test system of test [1] is Mycobacterium tuberculosis. Nature of the test: Antimycobacterial activity against Mycobacterium tuberculosis assessed as diameter of inhibition zone at 40 ug/disc. The format is functional. The settings on record: read-out: IZ.
Test [2] deals with Mycobacterium tuberculosis. Description: Antimycobacterial activity against Mycobacterium tuberculosis H37Rv. The class given is functional, organism-based.
In test [3] the target is T1, Enoyl-[acyl-carrier-protein] reductase [NADH] (Mycobacterium tuberculosis) (UniProt P9WGR1).
T1 sequence (whole entry): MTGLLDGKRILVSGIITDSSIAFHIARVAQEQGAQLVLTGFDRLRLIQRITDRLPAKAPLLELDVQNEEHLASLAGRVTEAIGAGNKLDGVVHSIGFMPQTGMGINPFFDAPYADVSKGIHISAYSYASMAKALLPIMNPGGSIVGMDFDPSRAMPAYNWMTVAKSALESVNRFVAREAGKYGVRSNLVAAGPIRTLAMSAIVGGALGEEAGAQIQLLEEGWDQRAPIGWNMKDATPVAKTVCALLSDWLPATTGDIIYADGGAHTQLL
Nature of the test: Inhibition of Mycobacterium tuberculosis InhA enzyme at 10 uM relative to control.

For test [4], the system named is Mycolicibacterium smegmatis. Nature of the test: Antimycobacterial activity against Mycobacterium smegmatis MC2 155 by broth dilution method. The format is functional.
Test [5] deals with Mycobacterium tuberculosis. Nature of the test: Antimycobacterial activity against Mycobacterium tuberculosis H37Ra. The class given is functional.
For test [6], the system named is Mycolicibacterium smegmatis. Description: Antimycobacterial activity against Mycobacterium smegmatis. The format is functional.
For test [7], the target named is T2, Phosphotyrosine protein phosphatase (Mycobacterium tuberculosis, UniProt A0A045ISB3).
T2 sequence (A0A045ISB3 whole entry): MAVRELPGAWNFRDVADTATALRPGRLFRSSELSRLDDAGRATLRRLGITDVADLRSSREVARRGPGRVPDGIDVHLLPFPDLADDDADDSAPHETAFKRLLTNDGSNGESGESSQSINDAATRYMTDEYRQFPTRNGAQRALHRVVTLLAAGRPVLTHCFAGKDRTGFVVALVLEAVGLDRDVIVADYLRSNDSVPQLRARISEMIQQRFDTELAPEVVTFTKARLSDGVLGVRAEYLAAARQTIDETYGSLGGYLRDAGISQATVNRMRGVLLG
Description: Inhibition of Mycobacterium tuberculosis Protein Tyrosine Phosphatase B.

The test system of test [8] is Mycobacterium tuberculosis. Description: Antimycobacterial activity against Mycobacterium tuberculosis H37Rv by broth dilution method. The format is functional. Background: Dilution methods test growth across graded concentrations, often in twofold steps.
The subject of test [9] is Mycobacterium tuberculosis. Nature of the test: Antimycobacterial activity against Mycobacterium tuberculosis H37Rv assessed as inhibition of mycobacterial growth at 12 ug/ml relative to control. The format is functional.
The nature of test [10]: Inhibition of Mycobacterium PknG.
Test [11] relates to Mycobacterium tuberculosis. Nature of the test: Antimycobacterial activity against Mycobacterium tuberculosis incubated for overnight by NCCLS broth dilution method. The format is functional.
The test system of test [12] is Mycobacterium tuberculosis. Nature of the test: Antimycobacterial activity against Mycobacterium tuberculosis H37Rv by Alamar Blue assay. The class given is functional. (The colour change of resazurin is a common sign of viable cells or microbes.)
A further test concerns Mycolicibacterium phlei. Nature of the test: Antimycobacterial activity against Mycobacterium phlei assessed as diameter of inhibition zone at 20 ug/disc. The settings on record: read-out: IZ. The class given is functional.
In test [13] the test system is Mycobacterium tuberculosis. Nature of the test: Antimycobacterial activity against Mycobacterium tuberculosis H37Rv ATCC 27294 by Alamar Blue staining-based broth microdilution assay. The format is functional.

Molecules are shown by their SMILES. In brackets after ≈: the same amount, converted by molar mass.

Broadly, the MIC is the lowest concentration that inhibits growth of the organism. The term inhibition denotes the drop in the measured response relative to a control, in per cent. The IC50 is the point on the concentration scale where inhibition reaches its midpoint. Lower therefore signals higher potency.

For the molecule `COc1cc(OC)c2c(O)c3c(=O)cc(C)oc3c(-c3c4cc(O)cc(OC)c4c(O)c4c(=O)cc(C)oc34)c2c1`, the zone of inhibition at 40 µg/disc in [1] turned out to be 11 mm.

Molecule `CCCCCC(=O)c1c(O)cc(CCCCC)oc1=O` registered an MIC in [2] of 2.79 µM (≈ 0.782 µg/mL). In test [3], this molecule yielded an inhibition of 68%.

In test [4], `C/C=C/C[C@@H]1NC(=O)[C@H](CC(C)C)N2C(=O)[C@H](C[C@H](C)[C@H]2O)N(C)C(=O)[C@H](C)NC(=O)[C@H](Cc2ccc(O)c([N+](=O)[O-])c2)NC(=O)[C@H](CC(C)C)N(C)C(=O)[C@H](Cc2cn(C(C)(C)[C@H]3CO3)c3ccccc23)NC1=O` yielded an MIC of 0.12 µM (≈ 0.125 µg/mL).

As for `C1=C2CCCC/C=C\C=C\CCN3CC[C@@H]4[C@H](CCCCCC/C=C\C=C/CCN(C2)C[C@H]14)C3` (relative stereo) [HALICYCLAMINE A], the MIC in test [5] and in test [6] was 2.16 to 10.8 µM (≈ 1 to 5.01 µg/mL) in each case.

For the molecule `CCCCCCCc1cc(O)c(CCCCCC)c(=O)o1` [PSEUDOPYRONINES B], in test [2], the minimum inhibitory concentration (MIC) fell in the range of 2.65 to 5.31 µM (≈ 0.78 to 1.56 µg/mL). The inhibition in test [3] amounted to 12%.

In turn, `CC(=O)c1cc(C)c(O)c(CC2=C(C)C(=O)C(O)=C(C)C2=O)c1O` yielded a concentration for half-maximal inhibition (IC50) in [7] of 1370 nM. In other words, the single-digit micromolar range.

Regarding `C=CC(C)(C)n1cc(C[C@@H]2NC(=O)[C@H](C/C=C/C)NC(=O)[C@H](CC(C)C)N3C(=O)[C@H](C[C@H](C)[C@@H]3O)N(C)C(=O)[C@H](C)NC(=O)[C@H](Cc3ccc(O)c([N+](=O)[O-])c3)NC(=O)[C@H](CC(C)C)N(C)C2=O)c2ccccc21`, the minimum inhibitory concentration (MIC) in test [8] was 0.0098 µM (≈ 0.0101 µg/mL).

Take `C/C=C1\NC(=O)[C@H](Cc2ccccc2)NC(=O)[C@@H](C(C)C)NC(=O)[C@@H]([C@@H](C)CC)NC(=O)[C@H](NC(=O)[C@H](NC(=O)[C@H](CCCN)NC(=O)[C@H]2CCCN2C(=O)[C@H](NC(=O)[C@@H](NC(=O)[C@@H](NC(=O)[C@H](NC(=O)CCCC(C)C)C(C)C)[C@@H](C)O)C(C)C)C(C)C)[C@@H](C)CC)[C@@H](C)OC(=O)[C@H](C(C)C)NC1=O`: in [9], the inhibition at 12 µg/mL came out at 67%.

Molecule `CC[C@H](C)/C=C(C)/C=C/C1=CC2=C(Cl)C(=O)[C@](C)(OC(C)=O)C(=O)C2=CO1` [SCLEROTIORIN] came in with an IC50 in test [10] of 76500 nM.

Take `CCC(C)C(=O)N[C@H](Cc1ccccc1)C(=O)NC1C(=O)N[C@H](CC(C)C)C(=O)N[C@H](Cc2ccccc2)C(=O)N[C@H](CC(C)C)C(=O)N[C@H]([C@H](C)O)C(=O)N[C@@H](CO)C(=O)O[C@@H]1C` (some centres not stated): the inhibition at 12 µg/mL in test [9] worked out at 83%.

Molecule `CN1C(=O)[C@]23CC4=CC=C[C@H](O)[C@H]4N2C(=O)[C@@]1(CO)SS3` [GLIOTOXIN] yielded an MIC in [11] of under 0.03 µM.

As for `C[C@@H]1C[C@H](C)C(=O)/C=C/[C@@H]2[C@@H](O)[C@H]3OC4=C(C(=O)O[C@@]42C[C@H]3C)C1=O` (stereo in doubt; (-)-145), the minimum inhibitory concentration (MIC) in test [12] (Mycobacterium tuberculosis, H37Rv, read-out: MIC) came to 3.6 µM (≈ 1.25 µg/mL).

In the case of `CC(C)=CCOc1cc(O)c2c3c(c(O)cc(C)c13)C(=O)OC2=O`, the zone of inhibition at 20 µg/disc with Mycolicibacterium phlei is 16 mm.

`C=CC(C)(C)n1cc(C[C@@H]2NC(=O)[C@H](C/C=C/C)NC(=O)[C@H](CC(C)C)N3C(=O)[C@H](C[C@H](C)[C@H]3O)N(C)C(=O)[C@H](C)NC(=O)[C@H](Cc3ccc(O)c([N+](=O)[O-])c3)NC(=O)[C@H](CC(C)C)N(C)C2=O)c2ccccc21`: in test [8], the MIC stood at 0.0098 µM (≈ 0.0101 µg/mL).

On to `C[C@@H]1C[C@H](C)C(=O)/C=C/[C@@H]2[C@@H](O)[C@H]3OC4=C(C(=O)O[C@@]42C[C@H]3C)C1=O` (stereo in doubt; (+)-145), for which the MIC in test [12] stood at 7.2 µM (≈ 2.49 µg/mL).

In test [7], `CC(=O)c1cc(C)c(O)c(Cc2c(O)cc(-c3ccc(O)c(O)c3)oc2=O)c1O` showed an IC50 of 160 nM.

As to `C/C=C/C[C@@H]1NC(=O)[C@H](CC(C)C)N2C(=O)[C@H](C[C@H](C)[C@@H]2O)N(C)C(=O)[C@H](C)NC(=O)[C@H](Cc2ccc(O)c([N+](=O)[O-])c2)NC(=O)[C@H](CC(C)C)N(C)C(=O)[C@H](Cc2cn(C(C)(C)[C@H]3CO3)c3ccccc23)NC1=O`, the lowest concentration to inhibit growth in [4] (MIC) was 0.12 µM (≈ 0.125 µg/mL).

Consider `CCCCCCC[C@@H]1C[C@@H]2CCC3=C(C(=O)OC(C)CCCCCC[C@@H]4C[C@@H]5CC[C@@H]6C[C@H](C)NC(=N4)N65)C(C)N=C(N1)N32` (some centres not stated), for which the MIC in [13] is 5.23 µM (≈ 3.18 µg/mL).

As for `CC(C)=CCOc1cc(O)c2c3c(c(O)cc(C)c13)OC2=O`, the zone of inhibition at 20 µg/disc in the test on Mycolicibacterium phlei came to 22 mm.

The values above are taken from ChEMBL document CHEMBL4400517, “Marine natural products as potential anti-tubercular agents” (Eur J Med Chem, 2019).
